This test addresses T1, ERR1 (also known as ERR-α or ERR-1) (Homo sapiens, UniProt P11474).
T1 sequence (P11474 193-421 limits assumed): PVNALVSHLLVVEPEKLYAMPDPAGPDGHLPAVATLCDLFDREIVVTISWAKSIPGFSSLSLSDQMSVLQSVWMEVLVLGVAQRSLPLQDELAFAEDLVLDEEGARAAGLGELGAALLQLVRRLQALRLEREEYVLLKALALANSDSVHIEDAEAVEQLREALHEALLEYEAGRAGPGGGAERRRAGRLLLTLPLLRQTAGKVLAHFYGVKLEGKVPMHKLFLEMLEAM
Briefly: TR-FRET assay (disruption of co-activator peptide binding). To be noted: 6His-tagged ERR1 LBD, GST-hSRC2 co-activator polypeptide; average of 3 independent experiments. It is filed as biochemical. Put shortly: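 His6-ERR1 LBD (6 nM) with GST-SRC-2 peptide (6 nM), anti-GST Eu cryptate (30 nM) and anti-His XL665 (7.5 nM) in Tris pH 8/KCl/DTT/BSA buffer, equilibrated 4-18 h at 25 °C. Ex 340, em 615/665 nm; hyperbolic dose-response fit, mean of 3 experiments.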
(In general: In TR-FRET formats the signal depends on donor and acceptor labels being close together.)

One may read the EC50 as the concentration at which the effect is half-maximal.

For the molecule `O=C1N=C(N2CCC(n3cnnn3)CC2)S/C1=C\c1ccc2c(cnn2Cc2ccc(Cl)cc2C(F)(F)F)c1` [Example 150, 5-[1-(4-Chloro-2-trifluoromethyl-benzyl)-1H-indazol-5-ylmethylene]-2-(4-tetrazol-1-yl-piperidin-1-yl)-thiazol-4-one], the EC50 amounted to 48 nM.

As for `O=C1N=C(N2CCNCC(O)C2)S/C1=C\c1ccc2c(cnn2Cc2ccc(C(F)(F)F)cc2C(F)(F)F)c1` (centres unmarked) [Example 151, 5-[1-(2,4-Bis-trifluoromethyl-benzyl)-1H-indazol-5-ylmethylene]-2-(6-hydroxy-[1,4]diazepan-1-yl)thiazol-4-one], a half-maximal response (EC50) required 25.7 nM.

`COC(=O)CCNC(=O)C1CN(C2=NC(=O)/C(=C/c3ccc4c(cnn4Cc4ccc(Cl)cc4C(F)(F)F)c3)S2)C1` [Example 152, 3-[(1-{5-[1-(4-Chloro-2-trifluoromethyl-benzyl)-1H-indazol-5-ylmethylene]-4-oxo-4,5-dihydro-thiazol-2-yl}-azetidine-3-carbonyl)-amino]-propionic acid methyl ester] registered an EC50 of 24 nM.

On to `COC(=O)CCNC(=O)C1CN(C2=NC(=O)/C(=C/c3ccc4c(cnn4Cc4ccc(C(F)(F)F)cc4C(F)(F)F)c3)S2)C1` [Example 153, 3-[(1-{5-[1-(2,4-Bis-trifluoromethyl-benzyl)-1H-indazol-5-ylmethylene]-4-oxo-4,5-dihydro-thiazol-2-yl}-azetidine-3-carbonyl)-amino]-propionic acid methyl ester], for which the midpoint of the response, the EC50, lay at 44 nM.

As to `NC1(C(=O)O)CCN(C2=NC(=O)/C(=C/c3ccc4c(cnn4Cc4ccc(Cl)cc4C(F)(F)F)c3)S2)CC1` [Example 154, 4-Amino-1-{5-[1-(4-chloro-2-trifluoromethyl-benzyl)-1H-indazol-5-ylmethylene]-4-oxo-4,5-dihydro-thiazol-2-yl}-piperidine-4-carboxylic acid], the response was half-maximal at 26.2 nM (EC50).

With `CC(=O)N(C)C1CCN(C2=NC(=O)/C(=C/c3ccc4c(cnn4Cc4ccc(Cl)cc4C(F)(F)F)c3)S2)CC1` [Example 155, N-(1-{5-[1-(4-Chloro-2-trifluoromethyl-benzyl)-1H-indazol-5-ylmethylene]-4-oxo-4,5-dihydro-thiazol-2-yl}-piperidin-4-yl)-N-methyl-acetamide], the EC50 is 34 nM.

Take `CCOC(=O)C1(N)CCN(C2=NC(=O)/C(=C/c3ccc4c(cnn4Cc4ccc(Cl)cc4C(F)(F)F)c3)S2)CC1` [Example 156, 4-Amino-1-{5-[1-(4-chloro-2-trifluoromethyl-benzyl)-1H-indazol-5-ylmethylene]-4-oxo-4,5-dihydro-thiazol-2-yl}-piperidine-4-carboxylic acid ethyl ester]: the EC50 came to 58 nM.

For `O=C1N=C(N2CCC(n3cccn3)CC2)S/C1=C\c1ccc2c(cnn2Cc2ccc(Cl)cc2C(F)(F)F)c1` [Example 157, 5-[1-(4-Chloro-2-trifluoromethyl-benzyl)-1H-indazol-5-ylmethylene]-2-(4-pyrazol-1-yl-piperidin-1-yl)-thiazol-4-one], the 50% effective concentration (EC50) was 35 nM.

The molecule `O=C1N=C(N2CCC(n3cncn3)CC2)S/C1=C\c1ccc2c(cnn2Cc2ccc(Cl)cc2C(F)(F)F)c1` [Example 158, 5-[1-(4-Chloro-2-trifluoromethyl-benzyl)-1H-indazol-5-ylmethylene]-2-(4-[1,2,4]triazol-1-yl-piperidin-1-yl)-thiazol-4-one] yielded an EC50 of 32 nM.

Molecule `O=C1N=C(N2CCC(n3ccnc3)CC2)S/C1=C\c1ccc2c(cnn2Cc2ccc(Cl)cc2C(F)(F)F)c1` [Example 159, 5-[1-(4-Chloro-2-trifluoromethyl-benzyl)-1H-indazol-5-ylmethylene]-2-(4-imidazol-1-yl-piperidin-1-yl)-thiazol-4-one] registered an EC50 of 36 nM.

Turning to `CCNC(=O)NC1CCN(C2=NC(=O)/C(=C/c3ccc4c(cnn4Cc4ccc(C(F)(F)F)cc4C(F)(F)F)c3)S2)CC1` [Example 160, 1-(1-{5-[1-(2,4-Bis-trifluoromethyl-benzyl)-1H-indazol-5-ylmethylene]-4-oxo-4,5-dihydro-thiazol-2-yl}-piperidin-4-yl)-3-ethyl-urea], the EC50 turned out to be 22 nM.

`CNC1CCCCN(C2=NC(=O)/C(=C/c3ccc4c(cnn4Cc4ccc(Cl)cc4C(F)(F)F)c3)S2)C1` (centres unmarked) [Example 161, 5-[1-(4-Chloro-2-trifluoromethyl-benzyl)-1H-indazol-5-ylmethylene]-2-(3-methylamino-azepan-1-yl)-thiazol-4-one] came in with a 50% effective concentration (EC50) of 24.8 nM.

The molecule `O=C1N=C(N2CCCC2)S/C1=C\c1ccc2c(cnn2Cc2ccc(Cl)cc2C(F)(F)F)c1` [Example 162, 5-[1-(4-Chloro-2-trifluoromethyl-benzyl)-1H-indazol-5-ylmethylene]-2-pyrrolidin-1-yl-thiazol-4-one] returned an EC50 of 27 nM.

Molecule `CN(C)CC1(O)CCN(C2=NC(=O)/C(=C/c3ccc4c(cnn4Cc4ccc(Cl)cc4C(F)(F)F)c3)S2)CC1` [Example 163, 5-[1-(4-Chloro-2-trifluoromethyl-benzyl)-1H-indazol-5-ylmethylene]-2-(4-dimethylaminomethyl-4-hydroxy-piperidin-1-yl)-thiazol-4-one] showed a concentration giving a half-maximal response (EC50) of 26 nM.

Molecule `O=C1N=C(N2CCC(O)(Cn3ccnc3)CC2)S/C1=C\c1ccc2c(cnn2Cc2ccc(Cl)cc2C(F)(F)F)c1` [Example 164, 5-[1-(4-Chloro-2-trifluoromethyl-benzyl)-1H-indazol-5-ylmethylene]-2-(4-hydroxy-4-imidazol-1-ylmethyl-piperidin-1-yl)-thiazol-4-one] came in with a concentration giving a half-maximal response (EC50) of 12 nM.

As to `CCC1(O)CCCN(C2=NC(=O)/C(=C/c3ccc4c(cnn4Cc4ccc(Cl)cc4C(F)(F)F)c3)S2)C1` (centres unmarked) [Example 165, 5-[1-(4-Chloro-2-trifluoromethyl-benzyl)-1H-indazol-5-ylmethylene]-2-(3-ethyl-3-hydroxy-piperidin-1-yl)-thiazol-4-one], the EC50 came to 18 nM.

Take `O=C1N=C(N2CCC(N3CCCC(O)C3)CC2)S/C1=C\c1ccc2c(cnn2Cc2ccc(Cl)cc2C(F)(F)F)c1` (centres unmarked) [Example 166, 5-[1-(4-Chloro-2-trifluoromethyl-benzyl)-1H-indazol-5-ylmethylene]-2-(3-hydroxy-[1,4′]bipiperidinyl-1′-yl)-thiazol-4-one]: the midpoint of the response, the EC50, lay at 19 nM.

In turn, `O=C1N=C(N2CCC3(CC2)NCNC3=O)S/C1=C\c1ccc2c(cnn2Cc2ccc(Cl)cc2C(F)(F)F)c1` [Example 167, 8-{5-[1-(4-Chloro-2-trifluoromethyl-benzyl)-1H-indazol-5-ylmethylene]-4-oxo-4,5-dihydro-thiazol-2-yl}-1,3,8-triaza-spiro[4.5]decan-4-one] displayed an EC50 of 16 nM.

`CN1CCN(C2=NC(=O)/C(=C/c3ccc4c(cnn4Cc4ccc(C(F)(F)F)cc4C(F)(F)F)c3)S2)CC1CCO` (centres unmarked) [Example 168, 5-[1-(2,4-Bis-trifluoromethyl-benzyl)-1H-indazol-5-ylmethylene]-2-[3-(2-hydroxy-ethyl)-4-methyl-piperazin-1-yl]-thiazol-4-one] showed a concentration giving a half-maximal response (EC50) of 9 nM.

In turn, `O=C1N=C(N2CCn3cccc3C2)S/C1=C\c1ccc2c(cnn2Cc2ccc(C(F)(F)F)cc2C(F)(F)F)c1` [Example 169, 5-[1-(2,4-Bis-trifluoromethyl-benzyl)-1H-indazol-5-ylmethylene]-2-(3,4-dihydro-1H-pyrrolo[1,2-a]pyrazin-2-yl)-thiazol-4-one] gave an EC50 of 225 nM.

Turning to `CC1C(=O)N(C)CCN1C1=NC(=O)/C(=C/c2ccc3c(cnn3Cc3ccc(C(F)(F)F)cc3C(F)(F)F)c2)S1` (centres unmarked) [Example 170, 4-{5-[1-(2,4-Bis-trifluoromethyl-benzyl)-1H-indazol-5-ylmethylene]-4-oxo-4,5-dihydro-thiazol-2-yl}-1,3-dimethyl-piperazin-2-one], a half-maximal effect (EC50) was put at 30 nM.

`CN(C)CC1CN(C2=NC(=O)/C(=C/c3ccc4c(cnn4Cc4ccc(C(F)(F)F)cc4C(F)(F)F)c3)S2)CCO1` (centres unmarked) [Example 171, 5-[1-(2,4-Bis-trifluoromethyl-benzyl)-1H-indazol-5-ylmethylene]-2-(2-dimethylaminomethyl-morpholin-4-yl)-thiazol-4-one] had a concentration giving a half-maximal response (EC50) of 38 nM.

In turn, `O=C1N=C(N2CCO[C@@H](CO)C2)S/C1=C\c1ccc2c(cnn2Cc2ccc(C(F)(F)F)cc2C(F)(F)F)c1` [Example 172, 5-[1-(2,4-Bis-trifluoromethyl-benzyl)-1H-indazol-5-ylmethylene]-2(R)-(2-hydroxymethyl-morpholin-4-yl)-thiazol-4-one] displayed an EC50 of 14 nM.

Molecule `O=C1N=C(N2CCC(C(=O)NS(=O)(=O)N3CCCC3)CC2)S/C1=C\c1ccc2c(cnn2Cc2ccc(C(F)(F)F)cc2C(F)(F)F)c1` [Example 173, Pyrrolidine-1-sulfonic acid (1-{5-[1-(2,4-bis-trifluoromethyl-benzyl)-1H-indazol-5-ylmethylene]-4-oxo-4,5-dihydro-thiazol-2-yl}-piperidine-4-carbonyl)-amide] came in with an EC50 of 71 nM.

The molecule `O=C1N=C(N2CCC(C(=O)NS(=O)(=O)N3CCCC3)CC2)S/C1=C\c1ccc2c(cnn2Cc2ccc(Cl)cc2C(F)(F)F)c1` [Example 174, Pyrrolidine-1-sulfonic acid (1-{5-[1-(4-chloro-2-trifluoromethyl-benzyl)-1H-indazol-5-ylmethylene]-4-oxo-4,5-dihydro-thiazol-2-yl}-piperidine-4-carbonyl)-amide] yielded a half-maximal effective concentration (EC50) of 58.1 nM.

The molecule `O=C1N=C(N2CCO[C@H](CO)C2)S/C1=C\c1ccc2c(c1)c(I)nn2Cc1ccc(C(F)(F)F)cc1C(F)(F)F` [Example 175, 5-[1-(2,4-Bis-trifluoromethyl-benzyl)-3-iodo-1H-indazol-5-ylmethylene]-2(S)-(2-hydroxymethyl-morpholin-4-yl)-thiazol-4-one] had a concentration giving a half-maximal response (EC50) of 5 nM.

The values above are taken from patent US8399681B2, “Substituted aminothiazolone indazoles as estrogen related receptor-alpha modulators” (Janssen Pharmaceutica NV, priority 2009, dated 2013).
